# Data published in patent US6921811B2, “Bioactive coating composition and methods” (BioSurface Engineering Technologies, Inc., priority 1998, dated 2005).
# What was measured:
# antithrombin/factor Xa = target: T1, antithrombin/factor Xa (Homo sapiens, UniProt P01008); assay: Loading efficiency of silyl-heparin complexes on materials, heparin-specific assays; type: biochemical; conditions: varied by substrate material (polystyrene, polycarbonate, polyurethane, stainless steel, titanium and others)
# T1 construct: purchased Sigma Diagnostics Procedure No. CRS 106
# Text: Using contacting surfaces coated with silyl-heparin as in Example 4, and to which silyl-heparin-fibronectin was attached as in Example 5, the presence of both heparin and fibronectin was detected in analytical assays. Heparin was detected using a commercially-available an enzyme-linked assay kit (Sigma Chemical Co., St. Louis) that measured the heparin-induced inhibition of antithrombin/factor Xa as measured with a factor Xa specific chromogenic substrate. The enzyme-inhibition assay was performed in low-attachment 96 well plates following the directions of the manufacturer.
# In related studies, heparin-specific assays and diemethylene blue dye uptake were used to establish that silyl-heparin complexes could be bound to a variety of materials including polystyrene, hydrogel-coated polystyrene, polycarbonate, polyurethane, poly caprolactone, polyvinylchloride, stainless steel and titanium. The loading efficiency of silyl-heparin complexes varied by substrate material, but was generally in the range of 10-40 mlU of heparin per cm^2.
# bFGF = target: T2, bFGF (Homo sapiens, UniProt P09038); assay: bFGF binding to silyl-heparin coated polystyrene wells, immunoassay
# T2 construct: purchased Sigma Chemical Co
# Method: Wells of 96 well polystyrene microtiter plates, with a well surface area of 0.32 cm^2, were coated with 30 μl of silyl heparin for 15 minutes at 37° C. After rinsing and air-drying, bFGF (Sigma Chemical Co.) in PBS/BSA was added in 150 μL aliquots in doubling dilutions. The plate was incubated at 37° C. for 1 hour and rinsed 5 times in PBS. An aliquot 150 μl of PBS/BSA containing 1:500 rabbit anti-FGF antibodies were added, incubated for 1 hour and rinsed. In some cases an irrelevant rabbit antibody was used at a similar concentration (rabbit anti-TGF-receptor II, Santa Cruz Biotechnology). An aliquot of PBS/BSA containing 1:500 HRPO-conjugated donkey anti-rabbit IgG added, and after incubation and rinsing ABTS-chromogen added. All antibody solutions were filtered through 0.2 micron filters prior to use. The absorbance was monitored at 405 nm. […] When anti-TGF-II (irrelevant antibody directed against the transforming growth factor receptor) was used instead of anti-FGF and at the same anti-dilutions, no bFGF was detected. When TGF-β, at a concentration of 40 ng was used as the growth factor molecule, no activity was detected with anti-bFGF antibodies.
# [1] = test system: Bovine aorta endothelial cells; assay: Capillary tube formation on coated low attachment wells; type: cell-based; conditions: 5×10^3 cells per well; DMEM containing 10% FBS; 4 days; phase contrast microscopy
# Method: Low attachment 96 well plates were coated with saline, silyl-heparin complex, silyl-heparin-fibrinogen complex or silyl-heparin-bFGF complex. Bovine aorta endothelial cells (5×10^3 cells) were seeded into each well in DMEM containing 10% FBS. The cells were allowed to grow for 4 days and the cultures examined by phase contrast microscopy.
# [2] = test system: Bovine aorta endothelial cells; assay: Growth of endothelial cells across a porous membrane from coated sutures, crystal violet; type: cell-based; conditions: coated suture separated from cells by 3 micron pore membrane; 4 days
# Method: Six-well cluster plates were seeded with 5×10^4 bovine aorta endothelial cells. Cell culture insert membranes (25 mm diameter) with 3 micron pores in the bottom were placed in each well. Suture material was coated with silyl-heparin-bFGF or silyl-heparin. 10 cm of suture material, either coated or uncoated, was placed in each well and medium added sufficient to cover the suture (3 mL total). One set of inserts containing an uncoated suture was spiked with 50 ng of bFGF by adding the bFGF directly to the medium and was used as a positive control. The cells were allowed to grow for 4 days, and were then fixed and stained with crystal violet. Thereafter, the stain was eluted in aqueous methanol and 0.4% SDS and monitored at 595 nm. bFGF from the silyl-heparin-bFGF coated suture was able to transit the separating permeable 3 micron membrane and act regionally to stimulate the growth of endothelial cells at the end of 4 days, as shown in FIG. 6.
# T2 sequence (P09038 143-288, species assumed): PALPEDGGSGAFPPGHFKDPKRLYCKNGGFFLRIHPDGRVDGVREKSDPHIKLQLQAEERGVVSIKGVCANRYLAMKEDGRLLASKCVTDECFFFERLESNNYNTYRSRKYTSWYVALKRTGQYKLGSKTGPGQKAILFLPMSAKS
# T1 sequence (P01008 33-464): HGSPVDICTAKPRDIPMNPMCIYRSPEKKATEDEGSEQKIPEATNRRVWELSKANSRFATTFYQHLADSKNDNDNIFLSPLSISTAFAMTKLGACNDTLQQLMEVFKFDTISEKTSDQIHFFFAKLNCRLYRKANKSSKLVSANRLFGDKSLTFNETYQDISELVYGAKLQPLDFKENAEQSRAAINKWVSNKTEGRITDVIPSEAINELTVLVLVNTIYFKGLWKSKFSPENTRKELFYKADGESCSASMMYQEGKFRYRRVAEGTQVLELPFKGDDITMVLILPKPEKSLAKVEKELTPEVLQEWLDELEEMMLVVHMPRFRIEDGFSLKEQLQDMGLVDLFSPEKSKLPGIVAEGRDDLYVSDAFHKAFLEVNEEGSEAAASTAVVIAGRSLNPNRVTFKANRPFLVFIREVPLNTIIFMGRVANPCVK
substance,measurement,setting,value
"benzyl-(1,2 dimethyl)disilyl heparin [silyl-heparin]",loading efficiency of silyl-heparin complexes,antithrombin/factor Xa,10-40 mlU of heparin per cm^2
same,upper saturation limit of the silyl-heparin complex for bFGF,bFGF; color development linear at high concentrations,had not been reached
same,binding of bFGF to silyl-heparin complexes on a contacting surface,bFGF; immunoassays,readily bound
same,binding of both fibrinogen and bFGF to heparin on a silyl-heparin complex,bFGF; immunoassays,without displacement of either
same,capillary tube formation,[1],Tubes did not form
same,growth (cell number) of endothelial cells,[2],did not result in an increase in cell number
